Experimental findings from PMC3057119 (Bioorganic & medicinal chemistry letters, 2011) are described below.

The subject of the assay is p53-dependent luciferase reporter in U2OS cells. Description: p53-dependent luciferase reporter activation. The assay is classed as cell-based. Conditions: U2OS cells stably expressing p53-dependent luciferase reporter, 5 μM. For orientation: In a reporter assay the amount or activity of a reporter protein is the signal.

For the molecule `COc1ccc(C2=N[C@@H](c3ccc(Cl)cc3)[C@@H](c3ccc(Cl)cc3)N2C(=O)N2CCNC(=O)C2)c(OC(C)C)c1` [Nutlin-3, nutlin-3], the “increase in luciferase activation” value is listed as 4 fold.
